Data on one compound can be found in patent publication US20230265048A1, “NOVEL SPHINGOLIPID CONTAINING BRANCHED-CHAIN FATTY ACID AND USE THEREOF” (SOLUS BIOTECH CO., LTD., priority 2020, published 2023).

Structures are written as SMILES.

The subject of data set [1] is skin erythema index on the cheek area. In words: Test Example 6: erythema relieving effect (Mexameter MX 18). The class given is in vivo, human. Here is the method:
The branched chain fatty acid ceramide-containing formulation prepared in Example 6 was clinically tested for erythema relieving effect. Specifically, for erythema measurement, a total of 10 test subjects were subjected to application of the branched chain fatty acid ceramide-containing formulation prepared in Example 6 twice a day, and measured before use (Week 0), 1 week after use, and 2 weeks after use by an instrument. The skin erythema index on the cheek area was measured using Mexameter MX 18 of Courage+Khazaka (C-K) (Cologne, Germany).

A short description of data set [2]: Test Example 3: Solubility in oils and polyols. The class given is physicochemical. More on the design: key: −: Non-soluble; +: Soluble (recrystallization occurred after cooling to room temperature); ++: Very soluble (recrystallization did not occur after cooling to room temperature). The settings on record: heated at 80° C., cooled to room temperature. Here is the method:
The ceramides of Example 4, Comparative Example 1, and Comparative Example 2 were mixed with oils and polyols at 0.1 to 1.0 wt % relative to the solvent substance, and then heated with stirring at 80° C. and then cooled to room temperature.

Turning to `CCCCCCCC/C=C\CCCCCCCC(=O)N[C@@H](CO)[C@H](O)/C=C/CCCCCCCCCCCCC` [Comparative Example 2, Oleoyl ceramide, reference compound], the “Erythema (skin erythema index)” value in data set [1] (Week 0 (before use)) is reported as 261.53 ± 10.82; in data set [1] (Week 1, applied twice a day) it was 236.2 ± 11.578; in data set [1] (Week 2, applied twice a day), 213.47 ± 11.518. Also, the Solubility result in data set [2] (Butylene glycol, 0.1%) is “+”; in data set [2] (Butylene glycol, 0.5%), “+”; in data set [2] (Caprylic/capric triglyceride, 0.1%), “−”; in data set [2] (Caprylic/capric triglyceride, 0.5%), “−”; in data set [2] (Cetyl ethyl hexanoate, 0.1%) it was “−”; in data set [2] (Cetyl ethyl hexanoate, 0.5%) it was “−”. For the same compound, the Solubility entry in data set [2] (Dipropylene glycol, 0.1%) was “+”; in data set [2] (Dipropylene glycol, 0.5%), “−”; in data set [2] (Glycerin, 0.1%), “−”; in data set [2] (Glycerin, 0.5%), “−”; in data set [2] (Macadamia ternifolisa seed oil, 0.1%), “−”; in data set [2] (Macadamia ternifolisa seed oil, 0.5%), “−”. In addition, the Solubility result in data set [2] (Propylene glycol, 0.1%) was “−”; in data set [2] (Propylene glycol, 0.5%), “−”.
